Results from patent publication US20110306597A1, “Nicotinamide Derivatives” (priority 2008, published 2011).

Target: human recombinant H-PGDS (Homo sapiens, UniProt O60760)
Test: Fluorescence Intensity h-PGDS TBA Enzyme Assay
Type: biochemical
Conditions: 1:175,000 human recombinant H-PGDS, highest inhibitor concentration typically 1 μM
How it was run: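 Recombinant human H-PGDS preincubated 10 min at room temperature with inhibitor in 100 mM Tris pH 8.0, 100 μM MgCl2, 2.5 mM glutathione, 0.5% DMSO; 5.0 μM PGH2 added, stopped after 42 s with FeCl2/citric acid. Remaining PGH2 measured as MDA–TBA fluorescence (ex 530/em 565 nm); IC50 by 4-parameter fit, 11 concentrations.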

Chain of human recombinant H-PGDS (O60760 whole entry): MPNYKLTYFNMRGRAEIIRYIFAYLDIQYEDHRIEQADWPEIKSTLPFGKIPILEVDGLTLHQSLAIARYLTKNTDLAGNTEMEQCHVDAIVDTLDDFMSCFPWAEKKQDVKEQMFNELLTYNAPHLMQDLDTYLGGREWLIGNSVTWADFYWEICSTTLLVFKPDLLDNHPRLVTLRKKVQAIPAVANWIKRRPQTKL

Row | IC50 | SMILES
1 | 42.5 nM | CCC(C)NC(=O)c1ccc(-c2cccc(C)c2)nc1 (stereo not shown) [Example 450, N-sec-Butyl-6-(3-methylphenyl)nicotinamide]
2 | 234 nM | Cc1cccc(-c2ccc(C(=O)NCc3ccc(Cl)cc3)cn2)c1 [Example 451, N-(4-Chlorobenzyl)-6-(3-methylphenyl)nicotinamide]
3 | 149 nM | Cc1cccc(-c2ccc(C(=O)NCc3ccc(C(F)(F)F)cc3)cn2)c1 [Example 454, 6-(3-Methylphenyl)-N-[4-(trifluoromethyl)benzyl] nicotinamide]
4 | 95.1 nM | COC(=O)c1ccc(CNC(=O)c2ccc(-c3cccc(C)c3)nc2)cc1 [Example 455, Methyl 4-[({[6-(3-methylphenyl)pyridin-3-yl]carbonyl}amino)methyl] benzoate]
5 | 178 nM | Cc1cccc(-c2ccc(C(=O)NCc3ccc(Cl)c(Cl)c3)cn2)c1 [Example 456, N-(3,4-Dichlorobenzyl)-6-(3-methylphenyl)nicotinamide]
6 | 222 nM | O=C(Nc1ccncc1)c1ccc(-c2ccc(F)cc2)nc1 [Example 459, 6-(4-Fluorophenyl)-N-pyridin-4-ylnicotinamide]
7 | ≥ 1000 nM | NS(=O)(=O)c1ccc(CNC(=O)c2ccc(-c3ccc(F)cc3)nc2)cc1 [Example 460, N-[4-(Aminosulfonyl)benzyl]-6-(4-fluorophenyl) nicotinamide]
8 | 653 nM | CC(C)CNC(=O)c1ccc(-c2ccc(F)cc2)nc1 [Example 463, 6-(4-Fluorophenyl)-N-isobutylnicotinamide]
9 | ≥ 1000 nM | O=C(CNC(=O)c1ccc(-c2ccc(F)cc2)nc1)OCc1ccccc1 [Example 464, Benzyl N-{[6-(4-fluorophenyl)pyridin-3-yl]carbonyl}glycinate]
10 | 345 nM | O=C(NCc1cccc(F)c1)c1ccc(-c2ccc(F)cc2)nc1 [Example 465, N-(3-Fluorobenzyl)-6-(4-fluorophenyl)nicotinamide]
11 | 256 nM | O=C(NCc1cc(F)cc2c1OCOC2)c1ccc(-c2ccc(F)cc2)nc1 [Example 472, N-[(6-Fluoro-4H-1,3-benzodioxin-8-yl)methyl]-6-(4-fluorophenyl)nicotinamide]
12 | 734 nM | O=C(NC1CCN(Cc2ccc(Cl)cc2)C1=O)c1ccc(-c2ccc(F)cc2)nc1 (stereo not shown) [Example 474, N-[1-(4-Chlorobenzyl)-2-oxopyrrolidin-3-yl]-6-(4-fluorophenyl)nicotinamide]
13 | ≥ 1000 nM | O=C(NCc1ccc(Cl)c(Cl)c1)c1ccc(-c2ccc(F)cc2)nc1 [Example 475, N-(3,4-Dichlorobenzyl)-6-(4-fluorophenyl)nicotinamide]
14 | 895 nM | O=C(NCCN1CCCC1=O)c1ccc(-c2ccc(F)cc2)nc1 [Example 477, 6-(4-Fluorophenyl)-N-[2-(2-oxopyrrolidin-1-yl)ethyl]nicotinamide]
15 | 377 nM | COc1ccc(CNC(=O)c2ccc(-c3ccc(F)cc3)nc2)cc1 [Example 478, 6-(4-Fluorophenyl)-N-(4-methoxybenzyl)nicotinamide]
16 | 365 nM | COc1cccc(-c2ccc(C(=O)NCc3ccc(S(N)(=O)=O)cc3)cn2)c1 [Example 481, N-[4-(Aminosulfonyl)benzyl]-6-(3-methoxyphenyl) nicotinamide]
17 | ≥ 1000 nM | COc1cccc(-c2ccc(C(=O)NCCC3CCN(C)CC3)cn2)c1 [Example 487, 6-(3-Methoxyphenyl)-N-[2-(1-methylpiperidin-4-yl)ethyl]nicotinamide]
18 | ≥ 1000 nM | CCOC(=O)C1(NC(=O)c2ccc(-c3ccc(F)cc3)nc2)CCOCC1 [Example 495, Ethyl 4-({[6-(4-fluorophenyl)pyridin-3-yl]carbonyl}amino)tetrahydro-2H-pyran-4-carboxylate]
19 | 429 nM | Cc1noc(CCNC(=O)c2ccc(-c3ccc(F)cc3)nc2)n1 [Example 496, 6-(4-Fluorophenyl)-N-[2-(3-methyl-1,2,4-oxadiazol-5-yl)ethyl]nicotinamide]
20 | ≥ 1000 nM | O=C(NCC1CCCCO1)c1ccc(-c2ccc(F)cc2)nc1 (stereo not shown) [Example 498, 6-(4-Fluorophenyl)-N-(tetrahydro-2H-pyran-2-ylmethyl)nicotinamide]

More lines, now with the values behind:

Row | SMILES | IC50
21 | COc1ccc(C(N)CC(=O)NC(=O)c2ccc(-c3cccc(C)c3)nc2)cc1OC (stereo not shown) [Example 452, N-[3-Amino-3-(3,4-dimethoxyphenyl)propanoyl]-6-(3-methylphenyl) nicotinamide] | 23.6 nM
22 | CSc1ccc(CNC(=O)c2ccc(-c3cccc(C)c3)nc2)cc1 [Example 453, 6-(3-Methylphenyl)-N-[4-(methylthio)benzyl]nicotinamide] | 102 nM
23 | CCOC(=O)C(CNC(=O)c1ccc(-c2ccc(F)cc2)nc1)c1c(F)cccc1F (stereo not shown) [Example 457, Ethyl 2-(2,6-difluorophenyl)-3-({[6-(4-fluorophenyl)pyridin-3-yl]carbonyl}amino) propanoate] | 428 nM
24 | O=C(NCCC1CNCCO1)c1ccc(-c2ccc(F)cc2)nc1 (stereo not shown) [Example 458, 6-(4-Fluorophenyl)-N-(2-morpholin-2-ylethyl)nicotinamide] | 697 nM
25 | COc1ccc(CNC(=O)c2ccc(-c3ccc(F)cc3)nc2)cc1OC [Example 461, N-(3,4-Dimethoxybenzyl)-6-(4-fluorophenyl) nicotinamide] | 91.5 nM
26 | O=C(NCc1ccc(Cl)cc1)c1ccc(-c2ccc(F)cc2)nc1 [Example 462, N-(4-Chlorobenzyl)-6-(4-fluorophenyl)nicotinamide] | ≥ 1000 nM
27 | COc1ccc(C(N)CC(=O)NC(=O)c2ccc(-c3ccc(F)cc3)nc2)cc1OC (stereo not shown) [Example 466, N-[3-Amino-3-(3,4-dimethoxyphenyl)propanoyl]-6-(4-fluorophenyl)nicotinamide] | ≥ 1000 nM
28 | CN(C)CCNC(=O)c1ccc(-c2ccc(F)cc2)nc1 [Example 467, N-[2-(Dimethylamino)ethyl]-6-(4-fluorophenyl)nicotinamide] | ≥ 1000 nM
29 | CCC1CCN(CCNC(=O)c2ccc(-c3ccc(F)cc3)nc2)CC1 [Example 468, N-[2-(4-Ethylpiperidin-1-yl)ethyl]-6-(4-fluorophenyl)nicotinamide] | 688 nM
30 | O=C(NCCN1CCCC1)c1ccc(-c2ccc(F)cc2)nc1 [Example 469, 6-(4-Fluorophenyl)-N-(2-pyrrolidin-1-ylethyl)nicotinamide] | ≥ 1000 nM
31 | CSc1ccc(CNC(=O)c2ccc(-c3ccc(F)cc3)nc2)cc1 [Example 470, 6-(4-Fluorophenyl)-N-[4-(methylthio)benzyl]nicotinamide] | ≥ 1000 nM
32 | CCOC(=O)CC[C@H](NC(=O)c1ccc(-c2ccc(F)cc2)nc1)C(=O)OCC [Example 471, Diethyl N-{[6-(4-fluorophenyl)pyridin-3-yl]carbonyl}-L-glutamate] | 192 nM
33 | O=C(NCc1ccco1)c1ccc(-c2ccc(F)cc2)nc1 [Example 473, 6-(4-Fluorophenyl)-N-(2-furylmethyl)nicotinamide] | 381 nM
34 | O=C(NCCN1CCN(Cc2ccccc2)CC1)c1ccc(-c2ccc(F)cc2)nc1 [Example 476, N-[2-(4-Benzylpiperazin-1-yl)ethyl]-6-(4-fluorophenyl)nicotinamide] | ≥ 1000 nM
35 | O=C(NC1CCN(Cc2ccc(Cl)c(Cl)c2)C1=O)c1ccc(-c2ccc(F)cc2)nc1 (stereo not shown) [Example 479, N-[1-(3,4-Dichlorobenzyl)-2-oxopyrrolidin-3-yl]-6-(4-fluorophenyl)nicotinamide] | 896 nM
36 | Cc1ccc(CNC(=O)c2ccc(-c3ccc(F)cc3)nc2)cc1 [Example 480, 6-(4-Fluorophenyl)-N-(4-methylbenzyl)nicotinamide] | 327 nM
37 | O=C(NCc1ccc(F)cc1)c1ccc(-c2ccc(F)cc2)nc1 [Example 482, N-(4-Fluorobenzyl)-6-(4-fluorophenyl)nicotinamide] | 527 nM
38 | COc1cccc(-c2ccc(C(=O)NCc3ccc(Cl)c(Cl)c3)cn2)c1 [Example 483, N-(3,4-Dichlorobenzyl)-6-(3-methoxyphenyl) nicotinamide] | 151 nM
39 | COc1cccc(-c2ccc(C(=O)NCc3ccc(C)cc3)cn2)c1 [Example 484, 6-(3-Methoxyphenyl)-N-(4-methylbenzyl)nicotinamide] | 178 nM
40 | COc1cccc(-c2ccc(C(=O)Nc3cccnc3)cn2)c1 [Example 485, 6-(3-Methoxyphenyl)-N-pyridin-3-ylnicotinamide] | 201 nM
41 | COc1cccc(-c2ccc(C(=O)NCCNc3ccccc3)cn2)c1 [Example 486, N-(2-Anilinoethyl)-6-(3-methoxyphenyl)nicotinamide] | 204 nM
42 | Cc1cccc(-c2ccc(C(=O)Nc3cccnc3)cn2)c1 [Example 488, 6-(3-Methylphenyl)-N-pyridin-3-ylnicotinamide] | 11.4 nM
43 | Cc1cccc(-c2ccc(C(=O)NCc3ccc(Br)cc3)cn2)c1 [Example 489, N-(4-Bromobenzyl)-6-(3-methylphenyl)nicotinamide] | 214 nM
44 | Cc1cccc(-c2ccc(C(=O)NCCNc3ccccc3)cn2)c1 [Example 490, N-(2-Anilinoethyl)-6-(3-methylphenyl)nicotinamide] | 39.9 nM
45 | Cc1ccccc1CNC(=O)c1ccc(-c2ccc(F)cc2)nc1 [Example 491, 6-(4-Fluorophenyl)-N-(2-methylbenzyl)nicotinamide] | 139 nM
46 | CCC(C)NC(=O)c1ccc(-c2ccc(F)cc2)nc1 (stereo not shown) [Example 492, N-sec-Butyl-6-(4-fluorophenyl)nicotinamide] | ≥ 1000 nM
47 | O=C(NCCN1CCCCC1=O)c1ccc(-c2ccc(F)cc2)nc1 [Example 493, 6-(4-Fluorophenyl)-N-[2-(2-oxopiperidin-1-yl)ethyl]nicotinamide] | 980 nM
48 | COC(=O)CCNC(=O)c1ccc(-c2ccc(F)cc2)nc1 [Example 494, Methyl N-{[6-(4-fluorophenyl)pyridin-3-yl]carbonyl}-beta-alaninate] | 758 nM
49 | COC(C)(C)CNC(=O)c1ccc(-c2ccc(F)cc2)nc1 [Example 497, 6-(4-Fluorophenyl)-N-(2-methoxy-2-methylpropyl)nicotinamide] | ≥ 1000 nM
